The test system of assay [1] is A549. The experiment in a line: Effective dose on human lung carcinoma (A549) cells. Format: functional. Conditions: read-out: ED50 (the source's name).
Assay [2] deals with DNA topoisomerase II (Homo sapiens, UniProt P11388+Q02880). Description: Inhibitory concentration against human DNA topoisomerase II. It counts as protein assay.

What is called IC50 is the concentration that inhibits the measured activity by half. Low readings indicate greater potency, high ones weaker potency.

Structures are written as SMILES. pEC50: −log10 of the molar value.

Regarding `C[C@H](CC[C@@H](O)C(C)(C)O)[C@H]1CC[C@]2(C)C3CCC4C(C)(C)C(=O)C(Br)=C[C@]4(C)C3=CC[C@]12C` (some centres not stated), the pEC50 in assay [1] was 4.85. Besides, the IC50 in assay [2] came out at 18.27 µM.

For the compound `COC(=O)C1=C[C@]2(C)C3=CC[C@]4(C)[C@@H]([C@H](C)CC[C@@H](O)C(C)(C)O)CC[C@]4(C)C3CCC2C(C)(C)C1=O` (some centres not stated), the pEC50 in assay [1] was 5.40. Further, the IC50 in assay [2] is 66.51 µM.

Regarding `COC1=C[C@]2(C)C3=CC[C@]4(C)[C@@H]([C@H](C)CC[C@@H](O)C(C)(C)O)CC[C@]4(C)C3CCC2C(C)(C)C1=O` (some centres not stated), in assay [1], the pEC50 was 4.53. The IC50 in assay [2] came out at 22.7 µM.

With `COc1cc([C@@H]2c3cc4c(cc3[C@@H](O[C@@H]3O[C@@H]5CO[C@@H](C)O[C@H]5[C@H](O)[C@H]3O)[C@H]3COC(=O)[C@H]23)OCO4)cc(OC)c1O` [ETOPOSIDE], the pEC50 in assay [1] is 5.47.

As to `C[C@H](CC[C@@H](O)C(C)(C)O)[C@H]1CC[C@]2(C)C3CCC4C(C)(C)C(=O)C(C(=O)O)=C[C@]4(C)C3=CC[C@]12C` (some centres not stated), in assay [1], the pEC50 was 5.13. For the same compound, in assay [2], the IC50 came to 23.8 µM.

As for `C[C@H](CC[C@@H](O)C(C)(C)O)[C@H]1CC[C@]2(C)C3CCC4C(C)(C)C(=O)C(Cl)=C[C@]4(C)C3=CC[C@]12C` (some centres not stated), the pEC50 in assay [1] is 4.42. This compound also gave an IC50 in assay [2] of 106.8 µM.

As for `C[C@H](CC[C@@H](O)C(C)(C)O)[C@H]1CC[C@]2(C)C3CCC4C(C)(C)C(=O)C=C[C@]4(C)C3=CC[C@]12C` (some centres not stated), the pEC50 in assay [1] was 4.57. In assay [2], this compound came in with a half-maximal inhibitory concentration (IC50) of 149.97 µM.

In the case of `C[C@H](CC[C@@H](O)C(C)(C)O)[C@H]1CC[C@]2(C)C3CCC4C(C)(C)C(=O)C(C=O)=C[C@]4(C)C3=CC[C@]12C` (some centres not stated), the pEC50 in assay [1] is 4.88. In assay [2], this compound displayed an IC50 of 1.86 µM.

`C[C@H](CC[C@@H](O)C(C)(C)O)[C@H]1CC[C@]2(C)C3CCC4C(C)(C)C(=O)C(C#N)=C[C@]4(C)C3=CC[C@]12C` (some centres not stated): the pEC50 in assay [1] was 4.59. The IC50 in assay [2] amounted to 83.23 µM.

For the origin of these results see ChEMBL document CHEMBL1139607, “Synthetic lanostane-type triterpenoids as inhibitors of DNA topoisomerase II” (Bioorg Med Chem Lett, 2005).
